From patent publication US20230303572A1, “18-MC SALT FORMS” (Mind Medicine, Inc., priority 2022, published 2023)
Entries after “also recorded” stand apart in the source; their conditions may differ. Counter-ions that a name gives are not always drawn.

Experiments:
Type in all cases: physicochemical
[1] = Physical form stability on storage at RT, air drying or exposure to ambient conditions (XRPD); conditions: for Form after treatment: metastable forms; for form change after exposure to ambient conditions (XRPD): exposure to ambient conditions for ~30 min; for physical stability at ambient conditions: time not stated
Description: (§1) For XRPD analysis, a PANalytical Empyrean and X′ Pert3 X-ray powder diffract meter was used.

[2] = Heating experiments and VT-XRPD (N2 drying, heating, cooling back): form change; conditions: for Form after heating: solid form by XRPD after heating, cells marked *, # have footnotes that are not shown; for form conversion, summary statement: after desolvation
Description: as §1

[3] = Relative thermodynamic stability of HCl salt forms (desolvation and form conversion data); conditions: for Form after desolvation: solvates of HCl salt
Description: Starting from HCl salt materials with different forms, a total of 100 polymorph screening experiments was performed using different crystallization methods including salt formation by liquid vapor diffusion/slurry at elevated temperature, evaporation at RT/high temperatures, slurry and reverse anti-solvent addition at different temperatures, slow/crash cooling, polymer induced crystallization and grinding. All the resulting solids were isolated for XRPD test, and new forms were further characterized by TGA, DSC, ^1H NMR and HPLC/ IC.
An additional polymorph screening was performed for 18-MC HCl salt.

[4] = after storage or heating experiments
[5] = after air drying or RT storage, duration not stated
[6] = the solid turn to gel-like after air drying at RT in a few minutes

With `COCC[C@H]1CC2CN3CCc4c([nH]c5ccccc45)[C@](C(=O)OC)(C2)[C@H]13` [HBr salt Type C, 18-methoxycoronaridine] the “form conversion, summary statement” value [1, 4] was “could convert to HBr salt Type A”, the “form change after heating (XRPD/VT-XRPD)” value ([2]; heating to 100° C.) was “peak of HBr salt Type A was observed” and the “form change after heating (XRPD)” value ([2]; heating to 150° C.) was “most diffraction peaks were consistent with HBr salt Type A”.

For `COCC[C@H]1CC2CN3CCc4c([nH]c5ccccc45)[C@](C(=O)OC)(C2)[C@H]13` [HBr salt Type D, 18-methoxycoronaridine], the “form conversion, summary statement” value [1, 4] was “could convert to HBr salt Type A”, the “form change after heating (XRPD/VT-XRPD)” value ([2]; heating to 100° C.) was “extra peak of HBr salt Type A was observed” and the “form change after heating (XRPD)” value ([2]; heating to 150° C.) was “most diffraction peaks of the sample were consistent with HBr salt Type A”.

With `COCC[C@H]1CC2CN3CCc4c([nH]c5ccccc45)[C@](C(=O)OC)(C2)[C@H]13` [HCl salt Type A, 18-methoxycoronaridine] the “thermodynamic stability among HCl salt forms” value ([3]; at RT) was “thermodynamically more stable than other anhydrates; also recorded: most thermodynamically stable form” and the “thermodynamic stability among hydrochloride salt forms” value ([3]; temperature not stated) was “most thermodynamically stable form”.

With `COCC[C@H]1CC2CN3CCc4c([nH]c5ccccc45)[C@](C(=O)OC)(C2)[C@H]13` [HCl salt Type B, 18-methoxycoronaridine] the Form after heating [2] was “HCl salt Type A” and the Form after desolvation [3] was “HCl salt Type A”.

In the case of `COCC[C@H]1CC2CN3CCc4c([nH]c5ccccc45)[C@](C(=O)OC)(C2)[C@H]13` [HCl salt Type C, 18-methoxycoronaridine], the Form after heating [2] is reported as “HCl salt Type A” and the Form after desolvation [3] is reported as “HCl salt Type A”.

With `COCC[C@H]1CC2CN3CCc4c([nH]c5ccccc45)[C@](C(=O)OC)(C2)[C@H]13` [HCl salt Type D, 18-methoxycoronaridine] the Form after treatment ([1]; Air drying) was “HCl salt Type A**” and the Form after heating [2] was “HCl salt Type A*”.

In the case of `COCC[C@H]1CC2CN3CCc4c([nH]c5ccccc45)[C@](C(=O)OC)(C2)[C@H]13` [HCl salt Type E, 18-methoxycoronaridine], the Form after treatment ([1]; Air drying) is reported as “HCl salt Type A**” and the Form after heating [2] is reported as “HCl salt Type A**”.

In the case of `COCC[C@H]1CC2CN3CCc4c([nH]c5ccccc45)[C@](C(=O)OC)(C2)[C@H]13` [HCl salt Type G, 18-methoxycoronaridine], the Form after treatment ([1]; RT storage) is reported as “HCl salt Type A^#” and the Form after heating [2] is reported as “HCl salt Type A**”.

For `COCC[C@H]1CC2CN3CCc4c([nH]c5ccccc45)[C@](C(=O)OC)(C2)[C@H]13` [HCl salt Type I, 18-methoxycoronaridine], the Form after desolvation [3] was “HCl salt Type A”.

For `COCC[C@H]1CC2CN3CCc4c([nH]c5ccccc45)[C@](C(=O)OC)(C2)[C@H]13` [HCl salt Type J, 18-methoxycoronaridine], the Form after treatment ([1]; RT storage) was “HCl salt Type F^#” and the Form after heating [2] was “HCl salt Type F*”.

In the case of `COCC[C@H]1CC2CN3CCc4c([nH]c5ccccc45)[C@](C(=O)OC)(C2)[C@H]13` [HCl salt Type L, 18-methoxycoronaridine], the Form after treatment ([1]; RT storage) is reported as “HCl salt Type A^#”, the “form conversion, summary statement” value [1, 5] is reported as “converted to HCl salt Type A” and the Form after heating [2] is reported as “HCl salt Type A”.

For `COCC[C@H]1CC2CN3CCc4c([nH]c5ccccc45)[C@](C(=O)OC)(C2)[C@H]13` [HCl salt Type O, 18-methoxycoronaridine], the Form after treatment ([1]; RT storage) was “HCl salt Type A^#” and the “form conversion, summary statement” value [1, 5] was “converted to HCl salt Type A”.

With `COCC[C@H]1CC2CN3CCc4c([nH]c5ccccc45)[C@](C(=O)OC)(C2)[C@H]13` [HCl salt Type P, 18-methoxycoronaridine] the “form change after N2 drying (VT-XRPD)” value ([2]; N2-drying for 20 min at 30° C.) was “no form change”, the “form conversion, summary statement” value [2] was “converted to HCl salt Type A” and the “form change after heating (XRPD)” value ([2]; heating to 80° C. and cooling back to RT) was “no obvious form change”. For the same compound, the “form change after heating (XRPD/VT-XRPD)” value ([2]; heating to 100° C.) was “form change to HCl salt Type A”, the “form change after heating (XRPD)” value ([2]; heating to 150° C.) was “converted to HCl salt Type A” and the “form change after heating (VT-XRPD)” value ([2]; heating to 210° C. under N2 protection) was “amorphous sample was observed”. For the same compound, the Form after desolvation [3] was “HCl salt Type A”.

For `COCC[C@H]1CC2CN3CCc4c([nH]c5ccccc45)[C@](C(=O)OC)(C2)[C@H]13` [HCl salt Type Q, 18-methoxycoronaridine], the “form change after N2 drying (VT-XRPD)” value ([2]; N2-drying for 20 min at 30° C.) was “no form change”, the “form conversion, summary statement” value [2] was “converted to HCl salt Type A” and the “form change after heating (VT-XRPD)” value ([2]; heating to 100° C., 130° C., 160° C. and cooling back to 30° C. under N2 protection) was “form change to a mixture of HCl salt Type A and freebase Type A”. For the same compound, the Form after desolvation [3] was “HCl salt Type A+freebase Type A”.

With `COCC[C@H]1CC2CN3CCc4c([nH]c5ccccc45)[C@](C(=O)OC)(C2)[C@H]13` [HCl salt Type R, 18-methoxycoronaridine] the “form conversion, summary statement” value [2] was “converted to HCl salt Type A”, the “form change after heating (XRPD)” value ([2]; heating to 170° C. and cooling back to ambient condition) was “converted to HCl salt Type A” and the Form after desolvation [3] was “HCl salt Type A”.

In the case of `COCC[C@H]1CC2CN3CCc4c([nH]c5ccccc45)[C@](C(=O)OC)(C2)[C@H]13` [HCl salt Type T, 18-methoxycoronaridine], the “form conversion, summary statement” value [2] is reported as “converted to HCl salt Type A”, the “form change after heating (XRPD)” value ([2]; heating to 150° C.) is reported as “most diffraction peaks were consistent with HCl salt Type A” and the Form after desolvation [3] is reported as “HCl salt Type A”.

In the case of `COCC[C@H]1CC2CN3CCc4c([nH]c5ccccc45)[C@](C(=O)OC)(C2)[C@H]13` [HCl salt Type U, 18-methoxycoronaridine], the “form conversion, summary statement” value [2] is reported as “converted to HCl salt Type A”, the “form change after heating (XRPD/VT-XRPD)” value ([2]; heating to 120° C.) is reported as “an extra peak representative of HCl salt Type A was observed” and the “form change after heating (XRPD)” value ([2]; heating to 150° C.) is reported as “most diffraction peaks were consistent with HCl salt Type A”. The Form after desolvation [3] was “HCl salt Type A”.

With `COCC[C@H]1CC2CN3CCc4c([nH]c5ccccc45)[C@](C(=O)OC)(C2)[C@H]13` [HCl salt Type V, 18-methoxycoronaridine] the Form after treatment ([1]; Air drying) was “HCl salt Type A**”, the “form conversion, summary statement” value [1, 5] was “converted to HCl salt Type A” and the “form change after air drying (XRPD)” value ([1]; air drying for ~3 hours) was “converted to HCl salt Type A completely”.

For `COCC[C@H]1CC2CN3CCc4c([nH]c5ccccc45)[C@](C(=O)OC)(C2)[C@H]13` [besylate Type C, 18-methoxycoronaridine], the “form change after exposure to ambient conditions (XRPD)” value (“form change after exposure” for short) [1] was “converted back to besylate Type A”.

With `COCC[C@H]1CC2CN3CCc4c([nH]c5ccccc45)[C@](C(=O)OC)(C2)[C@H]13` [mesylate Type B, 18-methoxycoronaridine] the “physical stability at ambient conditions” value [1] was “not found to be physically stable at ambient conditions and easily converted to gels/oils” and the “Speculated form (physical stability)” value [1, 6] was “Metastable*”.

With `COCC[C@H]1CC2CN3CCc4c([nH]c5ccccc45)[C@](C(=O)OC)(C2)[C@H]13` [mesylate Type C, 18-methoxycoronaridine] the “physical stability at ambient conditions” value [1] was “not found to be physically stable at ambient conditions and easily converted to gels/oils” and the “Speculated form (physical stability)” value [1, 6] was “Metastable*”.

In the case of `COCC[C@H]1CC2CN3CCc4c([nH]c5ccccc45)[C@](C(=O)OC)(C2)[C@H]13` [sulfate Type B, 18-methoxycoronaridine], the “form conversion, summary statement” value [1, 5] is reported as “converted to sulfate Type E” and the “form change after storage (XRPD)” value ([1]; storage at RT in a sealed vial for ~12 days) is reported as “form change to sulfate Type E”.

In the case of `COCC[C@H]1CC2CN3CCc4c([nH]c5ccccc45)[C@](C(=O)OC)(C2)[C@H]13` [sulfate Type C, 18-methoxycoronaridine], the “form conversion, summary statement” value [1, 5] is reported as “converted to sulfate Type A” and the “form change after air drying (XRPD)” value ([1]; air drying at RT for ~30 min) is reported as “converted to sulfate Type A”.

In the case of `COCC[C@H]1CC2CN3CCc4c([nH]c5ccccc45)[C@](C(=O)OC)(C2)[C@H]13` [sulfate Type F, 18-methoxycoronaridine], the “physical stability at ambient conditions” value [1] is reported as “not physically stable”, the “form change after exposure” value [1] is reported as “converted back to sulfate Type D” and the “form change after heating (XRPD/VT-XRPD)” value ([2]; heating to 100° C.) is reported as “remained sulfate Type F”.

With `COCC[C@H]1CC2CN3CCc4c([nH]c5ccccc45)[C@](C(=O)OC)(C2)[C@H]13` [tosylate Type A, 18-methoxycoronaridine] the “form change after storage (XRPD)” value ([1]; storage at RT for ~7 days) was “peak of tosylate Type B was observed”, the “form change after storage (XRPD)” value ([1]; storage for 3 weeks) was “totally converted to tosylate Type B” and the “form change after N2 drying (VT-XRPD)” value ([2]; N2-drying for 30 min at 30° C.) was “no form change”. For the same compound, the “form change after heating (XRPD/VT-XRPD)” value ([2]; heating to 100° C.) was “a form change was observed, which was assigned as tosylate Type I”.

In the case of `COCC[C@H]1CC2CN3CCc4c([nH]c5ccccc45)[C@](C(=O)OC)(C2)[C@H]13` [tosylate Type C, 18-methoxycoronaridine], the “form change after storage (XRPD)” value ([1]; storage at RT for about 2.5 month) is reported as “form change to tosylate Type B” and the “form change after N2 drying (VT-XRPD)” value ([2]; N2-drying for 30 min at 30° C.) is reported as “form change was observed for tosylate Type C. The new form was assigned as tosylate Type D”.

In the case of `COCC[C@H]1CC2CN3CCc4c([nH]c5ccccc45)[C@](C(=O)OC)(C2)[C@H]13` [tosylate Type D, 18-methoxycoronaridine], the “form change after exposure” value [1] is reported as “converted to tosylate Type B”, the “form change after heating (XRPD/VT-XRPD)” value ([2]; heating to 100° C.) is reported as “no form change” and the “form change after heating (VT-XRPD)” value ([2]; heating to 140° C. under N2 protection) is reported as “an amorphous pattern was observed”.

In the case of `COCC[C@H]1CC2CN3CCc4c([nH]c5ccccc45)[C@](C(=O)OC)(C2)[C@H]13` [tosylate Type H, 18-methoxycoronaridine], the “form change after air drying (XRPD)” value ([1]; air drying for ~3 hours) is reported as “form change to tosylate Type A” and the “Speculated form (physical stability)” value ([1]; form characterization summary of tosylate) is reported as “Metastable”.

For `COCC[C@H]1CC2CN3CCc4c([nH]c5ccccc45)[C@](C(=O)OC)(C2)[C@H]13` [tosylate Type I, 18-methoxycoronaridine], the “form change after open dish (XRPD)” value ([1]; open dish for ~3 hrs) was “converted back to tosylate Type A with an extra peak of tosylate Type B”.
